Assay results published in patent US20040053859A1, “Preventive or therapeutic agent for cancer containing cyanidin compound as active ingredient” (priority 2000, published 2004).

Experiments:
[1] = survival, clinical manifestation, weight and water intake of rats during feeding of test substances; format: in vivo, F344/DuCrj male rats
Procedure: (§1) F344/DuCrj male rats (Charles River Japan Inc.) were used as test animals. The rats were subjected to a subcutaneous administration of DMH of 20 mg/kg once a week, for 4 weeks. They were divided into a group 1 fed with a basic feed (labo MR stock, manufactured by Nihon Nosan Kogyo KK), a group 2 fed with PhIP (200 ppm) only, and a group 3 fed with a mixture of PhIP (200 ppm) and PCC (5%). The rats (20 per group) were allowed to take the feed freely for 32 weeks.
With an electronic balance (LC2200, manufactured by Sartorius), the weight of each rat was measured once a week until 14th week after initiation of the experiment, and thereafter measured once every two weeks. The feed intake amount of each rat was also measured once a week until 14th week, and thereafter measured once every other week in the same manner as the weight measurement, except that the feed intake amount for two days was measured.
With an electronic balance (LC2200, manufactured by Sartorius), an intake amount of water for two days was measured once a week until 14th week, and thereafter measured once every other week.

large intestine cancer = assay: carcinostatic effect against PhIP-promoted, DMH-initiated large intestine cancer in rats (macroscopic pathologic examination); format: in vivo, F344/DuCrj male rats; conditions: DMH 20 mg/kg s.c. once a week for 4 weeks, then feed for 32 weeks, group 2 PhIP 200 ppm only, group 3 PhIP 200 ppm + PCC 5%
Excerpt: Using DMH (1,2-dimethylhydradinedihydrochloride, manufactured by Tokyo Kasei Kogyo Co., Ltd., Lot. FIH01-UR) as an initiator of large intestine cancer, the carcinostatic effect of a purple corn pigment (manufactured. by San-Ei gen F.F.I., Inc. Lot. 990519, containing 10.8% of the compound of the formula (III) and 6.5% of the compound of the formula (IV), hereinafter referred to as PCC) was examined against the carcinogenesis promoting effect of PhIP (2-amino-1-methyl-6-phenylimidazo [4,5-b] pyridine (Toronto Research Chemical Inc., Lot. 5-YCX-55-2).
as §1
The rats alive at the end of the experiment were fasted and then bled for euthanasia under deep anesthesia. They were dissected together with the dead rat of the group 2 to macroscopically examine tumorigenesis in various organs in the thoracic cavity and the abdominal cavity.
In every rat, tumorigenesis was not observed in other organs than the large intestine (cecum, colon, rectum). The tumor generated in the large intestine was recognized as cancer by the macroscopic pathologic examination.

Cn1c(N)nc2ncc(-c3ccccc3)cc21 [PhIP, 2-amino-1-methyl-6-phenylimidazo[4,5-b]pyridine]
water intake amount ([1]; 5th and 6th weeks, group 2 PhIP 200 ppm, group 3 PhIP 200 ppm + PCC 5%, group 1 about 20): about 19 g/animal/day
survival until the end of the experiment ([1]; 32 weeks feeding after DMH, 20 rats per group): one in the group 2 died during the experiment
weight of the rats reached during administration of test substances (from about 230 g) ([1]; group 2 PhIP 200 ppm, group 3 PhIP 200 ppm + PCC 5%, group 1 basic feed about 360 g): ~315 g
Number of rats having tumor (large intestine cancer; 20 rats per group): 17
Numbers of tumors (large intestine cancer; 20 rats per group): 48
Number of tumors/number of rats having tumor (large intestine cancer): 2.82
